From US5849776A, “Medicaments based on metronidazole or on a synergic mixture of metronidazole and clindamycin” (Centre International de Recherches Dermatologiques Galderma …, priority 1994, dated 1998)
Entries after “also recorded” stand apart in the source; their conditions may differ.

How the values were obtained:
[1] = system: oedema of the ear of the mouse induced by topical application of arachidonic acid; assay: oedema of the ear of the mouse induced by topical application of arachidonic acid (in vivo topical anti-inflammatory activity); conditions: for % Inhibition of the oedema After 1 h: 1 h after arachidonic acid; for % Inhibition of the oedema After 1 h / % Inhibition of the oedema After 2 h: each active 2% in acetone solution, topical, 25 μl twice daily for 4 days plus last application 2 h before arachidonic acid, vs other ear pretreated with acetone only; for % Inhibition of the oedema After 2 h: 2 h after arachidonic acid; for anti-inflammatory activity (in words): in vivo topical application
Source text: The test used to evaluate this activity is that of oedema of the ear of the mouse induced by topical application of arachidonic acid. According to this model, the topical application of arachidonic acid to the ear causes an inflammation which is characterized by the rapid development of an oedema, the latter becoming maximum at the end of one hour after application. The oedematous response is then quantified by measuring the thickness of the ear.
The exact operating protocol is the following: the mice are first of all pretreated with the active product(s) to be evaluated, two topical applications per day (2×25 μl; one application in the morning and the other in the evening) being carried out on one of their ears of an acetone solution containing, at a given concentration, this or these active principle(s); this pretreatment is carried out for four consecutive days. Then, on the fifth day, the mice receive a last application (25 μl) of the solution containing the active principle(s) to be tested, which takes place two hours before the application to the ear thus pretreated of the arachidonic acid intended to produce the oedema (25 μl of a THF/methanol solution containing 4 weight % of arachidonic acid). The oedematous response is then quantified by measuring the thickness of the ear 1 hour and 2 hours after application of the arachidonic acid solution.

[2] = system: oedema of the ear of the mouse induced by topical application of arachidonic acid; conditions: conventional agents, general statement on the model; cited from earlier work

## Cc1ncc([N+](=O)[O-])n1CCO [Metronidazole, 2-methyl-5-nitroimidazole-1-ethanol]
[1]
  % Inhibition of the oedema After 1 h: 20%
  % Inhibition of the oedema After 2 h: 36%
  anti-inflammatory activity (in words): good anti-inflammatory activity after in vivo topical application

## COc1ccc2cc([C@H](C)C(=O)O)ccc2c1 [naproxen]
[2]
  inhibition in this model (in words): good inhibitors in this model

## CCC[C@@H]1C[C@@H](C(=O)N[C@@H]([C@H]2O[C@H](SC)[C@H](O)[C@@H](O)[C@H]2O)[C@H](C)Cl)N(C)C1 [Clindamycin]
[1]
  % Inhibition of the oedema After 1 h: (ni)
  % Inhibition of the oedema After 2 h: (ni)
  anti-inflammatory activity (in words): does not, by itself, have any significant activity; also recorded: no, or substantially no, anti-inflammatory activity

## CCCCC1C(=O)N(c2ccccc2)N(c2ccccc2)C1=O [phenylbutazone]
[2]
  inhibition in this model (in words): good inhibitors in this model

## COc1ccc2c(c1)c(CC(=O)O)c(C)n2C(=O)c1ccc(Cl)cc1 [indomethacin]
[2]
  inhibition in this model (in words): good inhibitors in this model
